Assay results taken from patent publication US10463681B2, “Combination therapy for skin disorders” (M. Alphabet 1, LLC, priority 2010, dated 2019).

What was measured:
Type in all cases: in vivo, human
[1] = tested on: comedones and nodular and inflammatory lesions (acne in patients); test: Placebo-controlled study in acne patients: counts of comedones and nodular and inflammatory lesions on the face
Method: (§1) Thirty-five patients (13-55 years of age) were enrolled in a placebo-controlled study. Twenty-seven patients were treated with oral administration of a capsule containing the ingredients of Formula 1 and eight patients were treated with a placebo capsule containing only doxycycline hyclate (50 mg). Patients received Formula 1 or placebo twice daily for twelve weeks. The number of comedones (“blackheads”) and nodular and inflammatory lesions (>2 mm in diameter) were counted on the face of each patient at baseline and at two weeks, six weeks and twelve weeks post-treatment.
The results are shown as the change at baseline and the percent change from baseline for each outcome measure after twelve weeks of treatment. Data are reported as mean values (±standard error of the mean, SEM) for each outcome measure. The results for ‘total lesions’ includes both comedones and inflammatory and nodular lesions.

patients = test: Untoward effects in the placebo-controlled patient study; settings: twice daily for twelve weeks, oral capsule
Method: as §1

[2] = tested on: porphyrins, a measure of bacteria in pores; test: Visia complexion analysis: average number of porphyrins
Method: Thirty-five patients (13-55 years of age) were enrolled in a placebo-controlled study. Twenty-seven patients were treated with oral administration of a capsule containing the ingredients of Formula 1 and eight patients were treated with a placebo capsule containing only doxycycline hyclate (50 mg). Patients received Formula 1 or placebo twice daily for twelve weeks. The number of comedones (“blackheads”) and nodular and inflammatory lesions (>2 mm in diameter) were counted on the face of each patient at baseline and at two weeks, six weeks and twelve weeks post-treatment. […] Lastly, the Visia™ complexion analysis system was used to assess the average number of porphyrins, a measure of bacteria in pores, in each patient.

[3] = tested on: inflammatory and nodular lesions and comedones (acne in patients); test: Investigator Global Assessment (IGA) score of the appearance of inflammatory and nodular lesions and comedones; settings: score of 1 to 10, 10 indicating the most improvement
Method: as §1
Next, an Investigator Global Assessment (IGA) score measuring the improvement of the appearance of inflammatory and nodular lesions and comedones was determined for each patient at baseline and 2 weeks and 6 weeks post-treatment. For this assessment the investigators were asked to evaluate whether their patient's lesions and comedones improved using a score of 1 to 10 with 10 indicating the most improvement.

C[C@H]1c2cccc(O)c2C(O)=C2C(=O)[C@]3(O)C(O)=C(C(N)=O)C(=O)[C@@H](N(C)C)[C@@H]3[C@@H](O)[C@@H]21 [Placebo, doxycycline hyclate]
Total Comedones, Change from baseline, % ([1]; 12 weeks vs baseline): −27.4% | Total Inflammatory and Nodular Lesions, Change from baseline, % ([1]; 12 weeks vs baseline): −50.9% | Total Lesions, Change from baseline, % ([1]; 12 weeks vs baseline): −35.6% | reduction of the total number of lesions (comedones and inflammatory and nodular lesions) ([1]; after twelve weeks of treatment): 35.6% | reduction of the average number of comedones at twelve weeks compared to baseline ([1]; twelve weeks vs baseline): 27.4% | average number of comedones, week 2 ([1]; week 2): 29.0 | average number of comedones, week 6 ([1]; week 6): 11.8 | serious untoward effects (patients): No serious untoward effects | Por (BL), average number of porphyrins ([2]; baseline): 31.6 | Por (W2), average number of porphyrins ([2]; week 2): 25.8 | Por (W6), average number of porphyrins ([2]; week 6): 15.7 | Por (W12), average number of porphyrins ([2]; week 12): 35.5 | IGA score, baseline ([3]; baseline): 2.3 | IGA score, six weeks ([3]; six weeks): 2.5
